Test results as given in patent US20230278954A1, “BRANCHED LIPID COMPOUDS” (priority 2020, published 2023).
“And” between values parts separate entries of the source, which are not always exact repeats. Equal values may be shown once.

Key:
[1] = Stability III: accelerated aging at 40° C., 3 or 6 weeks, HPLC recovery; type: physicochemical
Method: Recovery of the target compound was assessed by HPLC, and the values as a percentage of the reference sample are reported in Table 14 and in FIG. 5.

HEK-Blue Null2 cells = assay: TLR- control cell line HEK-Blue Null2 (control for mouse TLR2); type: cell-based
Method: (§1) The secreted embryonic alkaline phosphatase (SEAP) reporter is under the control of a promoter inducible by the transcription factor NF-κB. This reporter gene allows the monitoring of signaling through the TLR, based on the activation of NF-κB. In a 96-well plate (200 µL total volume) containing the appropriate cells (50,000 - 75,000 cells/well), 20 µL of the test article or the positive control ligand (HKLC) is added to the wells. The media added to the wells is designed for the detection of NF-κB induced SEAP expression. After a 16-24-hour incubation the optical density (OD) is read at 650 nm on a Molecular Devices SpectraMax 340PC absorbance detector.

mouse TLR2 = target: T1, mouse TLR2 (Mus musculus, UniProt Q9QUN7); assay: HEK-Blue mTLR2 dose response (SEAP reporter); type: cell-based
T1 construct: expressed in transfected cells; host or cells: HEK-Blue mTLR2 cells
T1 sequence (Q9QUN7 25-784): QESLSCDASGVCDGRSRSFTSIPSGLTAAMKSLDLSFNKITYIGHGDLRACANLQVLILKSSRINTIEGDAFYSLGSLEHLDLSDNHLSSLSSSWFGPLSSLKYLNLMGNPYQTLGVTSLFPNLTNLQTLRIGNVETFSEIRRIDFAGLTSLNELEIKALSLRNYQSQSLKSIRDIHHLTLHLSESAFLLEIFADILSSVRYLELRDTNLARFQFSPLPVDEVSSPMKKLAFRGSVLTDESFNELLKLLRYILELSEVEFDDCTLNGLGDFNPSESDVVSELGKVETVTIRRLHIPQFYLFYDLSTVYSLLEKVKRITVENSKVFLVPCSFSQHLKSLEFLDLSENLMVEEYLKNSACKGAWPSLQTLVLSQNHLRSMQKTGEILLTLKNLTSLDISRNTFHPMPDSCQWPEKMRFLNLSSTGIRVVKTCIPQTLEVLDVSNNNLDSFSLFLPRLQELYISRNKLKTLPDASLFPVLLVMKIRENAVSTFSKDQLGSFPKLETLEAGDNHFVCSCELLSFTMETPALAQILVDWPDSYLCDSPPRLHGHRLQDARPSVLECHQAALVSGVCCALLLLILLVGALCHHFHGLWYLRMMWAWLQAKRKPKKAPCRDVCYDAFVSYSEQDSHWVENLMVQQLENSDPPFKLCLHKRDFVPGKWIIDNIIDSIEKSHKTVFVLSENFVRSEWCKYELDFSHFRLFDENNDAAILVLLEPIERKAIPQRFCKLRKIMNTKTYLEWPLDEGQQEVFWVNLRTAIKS
T1 sequence (Q9Y2C9 32-796 partner): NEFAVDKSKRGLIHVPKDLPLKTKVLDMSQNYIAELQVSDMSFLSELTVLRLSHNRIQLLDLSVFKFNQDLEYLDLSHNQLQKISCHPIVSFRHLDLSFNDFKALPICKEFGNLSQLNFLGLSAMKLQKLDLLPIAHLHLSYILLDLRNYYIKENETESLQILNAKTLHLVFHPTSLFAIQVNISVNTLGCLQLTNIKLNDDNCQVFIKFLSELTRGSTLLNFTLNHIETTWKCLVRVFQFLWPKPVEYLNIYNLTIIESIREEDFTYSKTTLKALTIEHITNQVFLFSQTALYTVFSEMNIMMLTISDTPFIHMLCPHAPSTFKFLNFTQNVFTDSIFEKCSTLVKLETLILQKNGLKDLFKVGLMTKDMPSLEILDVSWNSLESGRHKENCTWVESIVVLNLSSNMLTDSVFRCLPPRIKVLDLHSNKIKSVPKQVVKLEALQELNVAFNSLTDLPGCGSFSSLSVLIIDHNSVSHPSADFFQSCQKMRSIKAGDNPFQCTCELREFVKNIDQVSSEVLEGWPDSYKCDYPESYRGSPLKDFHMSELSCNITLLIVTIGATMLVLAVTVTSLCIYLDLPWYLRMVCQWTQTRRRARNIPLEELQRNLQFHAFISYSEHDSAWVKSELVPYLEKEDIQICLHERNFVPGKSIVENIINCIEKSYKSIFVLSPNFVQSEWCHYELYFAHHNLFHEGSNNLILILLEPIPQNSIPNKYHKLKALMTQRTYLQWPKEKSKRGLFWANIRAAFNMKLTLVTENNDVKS
Method: (§2) Toll-Like Receptor (TLR) stimulation is tested by assessing NF-KB activation in the TLR expressing cell lines. HEK-Blue h/mTLR2 cells have been stably transfected with human or mouse TLR2 and CD14. The activity of the test articles are tested on human and mouse TLR2, as potential agonists. The test articles are evaluated at seven concentrations and compared to control ligands (see list below). These steps are performed in triplicate.
(§3) A 5 µg/mL working stock was then prepared for each compound from the 20 µg/mL dilution in sterile PBS. Starting from the 5 µg/mL working stock, a series of six 1:4 serial dilutions were made by mixing 100 µL of the previous highest dilution with 300 µL sterile PBS.
as §1

HEK-Blue Null1 cells = assay: TLR- control cell line HEK-Blue Null1 (control for human TLR2); type: cell-based
Method: as §1

human TLR2 = target: T2, human TLR2 (Homo sapiens, UniProt O60603); assay: Activation of human TLR2 III: HEK-Blue hTLR2 dose response (SEAP reporter); type: cell-based; settings: for optical density (650 nm): screenings 1-3; for stimulatory / agonist activity for hTLR2 (in words) / fold induction at 120 fg/mL / fold induction at 490 fg/mL / fold induction at 1.95 pg/mL / fold induction at 7.81 pg/mL / fold induction at 31.25 pg/mL / fold induction at 0.000125 µg/mL / fold induction at 0.0005 µg/mL: HEK-Blue hTLR2; for fold induction at 120 fg/mL / fold induction at 490 fg/mL / fold induction at 1.95 pg/mL / fold induction at 7.81 pg/mL / fold induction at 31.25 pg/mL / fold induction at 0.000125 µg/mL / fold induction at 0.0005 µg/mL: read-out: Fold Induction (ratio of average induced value to average non-induced value); for EC50: agonism of hTLR2, HEK-Blue hTLR2
T2 construct: expressed in transfected cells; host or cells: HEK-Blue hTLR2 cells
T2 sequence (O60603 21-784): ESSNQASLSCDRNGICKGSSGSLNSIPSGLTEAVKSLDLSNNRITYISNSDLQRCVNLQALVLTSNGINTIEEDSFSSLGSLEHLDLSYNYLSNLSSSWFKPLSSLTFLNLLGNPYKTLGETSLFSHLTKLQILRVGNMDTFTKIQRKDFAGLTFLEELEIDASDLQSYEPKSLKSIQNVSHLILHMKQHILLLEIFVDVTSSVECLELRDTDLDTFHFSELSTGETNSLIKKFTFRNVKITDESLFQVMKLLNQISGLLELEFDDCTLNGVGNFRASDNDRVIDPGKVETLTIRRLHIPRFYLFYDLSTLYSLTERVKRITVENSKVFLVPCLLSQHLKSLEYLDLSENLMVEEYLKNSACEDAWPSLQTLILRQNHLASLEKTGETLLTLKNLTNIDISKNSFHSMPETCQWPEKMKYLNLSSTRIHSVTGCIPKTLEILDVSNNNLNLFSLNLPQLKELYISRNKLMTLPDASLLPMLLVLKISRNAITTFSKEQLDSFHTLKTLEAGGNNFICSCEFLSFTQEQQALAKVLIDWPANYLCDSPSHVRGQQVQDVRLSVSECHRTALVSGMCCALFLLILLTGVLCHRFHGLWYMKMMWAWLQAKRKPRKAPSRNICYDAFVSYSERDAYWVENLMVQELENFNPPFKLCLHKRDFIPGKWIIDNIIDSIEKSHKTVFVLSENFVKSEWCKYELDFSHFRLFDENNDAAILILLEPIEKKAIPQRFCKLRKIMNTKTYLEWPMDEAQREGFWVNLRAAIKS
T2 sequence (Q9Y2C9 32-796 partner): as the sequence (Q9Y2C9 32-796 partner) above
Method: as §2, §3, §1

SMILES	stability under accelerated storage conditions (in words) [1]	stimulatory response in HEK-Blue Null2 (mouse) cells (in words) (HEK-Blue Null2 cells)	stimulatory / agonist activity for mTLR2 (in words) (mouse TLR2)	stimulatory response in HEK-Blue Null1 (human) cells (in words) (HEK-Blue Null1 cells)	Average optical density (650 nm) (human TLR2; 0.12 pg/mL)	optical density (650 nm) (human TLR2; 0.12 pg/mL)	Average optical density (650 nm) (human TLR2; 0.49 pg/mL)	optical density (650 nm) (human TLR2; 0.49 pg/mL)	Average optical density (650 nm) (human TLR2; 1.95 pg/mL)	optical density (650 nm) (human TLR2; 1.95 pg/mL)	Average optical density (650 nm) (human TLR2; 7.81 pg/mL)	optical density (650 nm) (human TLR2; 7.81 pg/mL)	Average optical density (650 nm) (human TLR2; 31.25 pg/mL)	optical density (650 nm) (human TLR2; 31.25 pg/mL)	Average optical density (650 nm) (human TLR2; 125 pg/mL)	optical density (650 nm) (human TLR2; 125 pg/mL)	Average optical density (650 nm) (human TLR2; 500 pg/mL)	optical density (650 nm) (human TLR2; 500 pg/mL)	stimulatory / agonist activity for hTLR2 (in words) (human TLR2)	fold induction at 120 fg/mL (human TLR2; 0.12 pg/mL)	further results
CCCCCCCCCCCCCC[C@@H](C)C(=O)OCC[C@H](CSC[C@H](N)C(=O)N[C@@H](CO)C(=O)NCCOCCOCCOCCOCCOCCOCCOCCOCCOCCOCCOCCOCCOCCOCCOCCOCCOCCOCCOCCOCCOCCOCCOCCOCCOCCOCCOCCOCCC(=O)NCC(N)=O)OC(=O)[C@H](C)CCCCCCCCCCCCCC [Compound B14]	excellent stabilities	not observed	stimulatory activity	not observed	0.823	0.826 and 0.869 and 0.774	1.342	1.256 and 1.364 and 1.406	2.018	1.994 and 2.061 and 2.000	2.562	2.569 and 2.545 and 2.571	2.744	2.820 and 2.720 and 2.691	2.814	2.928 and 2.800 and 2.713	2.759	2.722 and 2.765 and 2.791	stimulatory activity	18.7	fold induction at 490 fg/mL (human TLR2; 0.49 pg/mL): 25.5; fold induction at 1.95 pg/mL (human TLR2; 1.95 pg/mL): 28; fold induction at 7.81 pg/mL (human TLR2; 7.81 pg/mL): 33; fold induction at 31.25 pg/mL (human TLR2; 31.25 pg/mL): 33.7; fold induction at 0.000125 µg/mL (human TLR2; 125 pg/mL): 35.2; fold induction at 0.0005 µg/mL (human TLR2; 500 pg/mL): 33.9; EC50 (human TLR2): 0.264 nM
CCCCCCCCCCCCCC[C@H](C)C(=O)OCC[C@H](CSC[C@H](N)C(=O)N[C@@H](CO)C(=O)NCCOCCOCCOCCOCCOCCOCCOCCOCCOCCOCCOCCOCCOCCOCCOCCOCCOCCOCCOCCOCCOCCOCCOCCOCCOCCOCCOCCOCCC(=O)NCC(N)=O)OC(=O)[C@@H](C)CCCCCCCCCCCCCC [Compound B16]	excellent stabilities	not observed	stimulatory activity	not observed	0.666	0.688 and 0.591 and 0.718	1.099	1.080 and 1.097 and 1.121	1.521	1.478 and 1.513 and 1.573	1.978	1.903 and 1.897 and 2.133	2.252	2.093 and 2.297 and 2.367	2.540	2.531 and 2.544 and 2.545	2.475	2.466 and 2.488 and 2.472	stimulatory activity	9.2	fold induction at 490 fg/mL (human TLR2; 0.49 pg/mL): 15.3; fold induction at 1.95 pg/mL (human TLR2; 1.95 pg/mL): 21.1; fold induction at 7.81 pg/mL (human TLR2; 7.81 pg/mL): 27.5; fold induction at 31.25 pg/mL (human TLR2; 31.25 pg/mL): 31.3; fold induction at 0.000125 µg/mL (human TLR2; 125 pg/mL): 35.3; fold induction at 0.0005 µg/mL (human TLR2; 500 pg/mL): 34.4; EC50 (human TLR2): 0.504 nM
